The source of these data is patent US20100120775A1, “Farnesoid X Receptor Agonists” (SMITHKLINE BEECHAM CORPORATION, priority 2006, published 2010).

Each structure is given as a SMILES string.

One experiment has as its target T1, Human FXRα Ligand Binding Domain (Homo sapiens, UniProt Q96RI1).
T1 construct: polyhistidine (pRSET-A vector) (N); made in house; host or cells: E. coli BL21 (DE3), pRSET-A vector
T1 sequence (Q96RI1 237-472 isoform Q96RI1-2): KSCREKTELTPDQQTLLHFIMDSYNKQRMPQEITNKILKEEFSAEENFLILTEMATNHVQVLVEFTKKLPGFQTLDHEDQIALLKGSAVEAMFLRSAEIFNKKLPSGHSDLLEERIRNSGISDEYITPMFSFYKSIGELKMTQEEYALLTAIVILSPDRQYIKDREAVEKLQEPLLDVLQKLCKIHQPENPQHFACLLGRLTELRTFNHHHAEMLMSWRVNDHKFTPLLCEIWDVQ
The experiment can be described thus: FXR Cofactor Binding Assay (FXR LBD / SRC-1 peptide, time resolved fluorescence). The note with it: FXRα LBD with biotinylated SRC-1 (LCD2, 676-700) peptide. An excerpt:
Determination of a ligand mediated cofactor peptide interaction to quantify ligand binding to the nuclear receptor Farnesoid X Receptor (FXR). The method measures the ability of putative ligands to modulate the interaction between the purified bacterial expressed FXRα ligand binding domain (LBD) and a synthetic biotinylated peptide based on residues 676-700 of steroid receptor coactivator-1 (SRC-1) (LXXLL-containing domain-2 where L is the amino acid leucine and X indicates any other amino acid (LCD2), 676-700). The sequence of the SRC-1 peptide used is as published in Iannone, M. A., et al., 2001 Cytometry 44:326-337 where the N-terminus was biotinylated (B) and the C-terminus was amidated. Detection of the associated complex was measured by time resolved fluorescence (TRF). The purified LBD of FXR was labeled with biotin then mixed with stoichiometric amounts of allophycocyanin (APC) labeled streptavidin (Molecular Probes). The biotinylated peptide was then mixed with a ½ stoichiometric amount of europium labeled streptavidin (Wallac Inc). Each was then blocked with a 5 fold excess of biotin and allowed to equilibrate for 15 min. Equimolar amounts of receptor and peptide were mixed together and were allowed to equilibrate for at least 30 min prior to the addition to either a variable or constant concentrations of the sample for which the affinity is to be determined. After equilibration, the time-resolved fluorescent signal was quantitated using a fluorescent plate reader. The affinity of the test compound was estimated from a plot of fluorescence versus concentration of test compound added.
A basal level of FXR: peptide formation is observed in the absence of added ligand. Ligands that promote the complex formation induce a concentration-dependent increase in time-resolved fluorescent signal. Compounds which bind equally well to both monomeric FXR and to the FXR: peptide complex would be expected to give no change in signal, whereas ligands which bind preferentially to the monomeric receptor would be expected to induce a concentration-dependent decrease in the observed signal.
Human FXRα Ligand Binding Domain (FXRα LBD) was expressed in E. coli strain BL21 (DE3) as an amino-terminal polyhistidine tagged fusion protein. Expression was under the control of an isopropyl-13-D-thiogalactopyranoside (IPTG) inducible T7 promoter. DNA encoding this recombinant protein is subcloned into the pRSET-A expression vector (Invitrogen). The coding sequence of Human FXRα LBD was derived from Genbank accession number U 68233 (amino acids 237 to 472).
Routinely, 30-40 g cell paste (equivalent to 2-3 liters of the fermentation batch) was resuspended in 200-250 mL Tris buffered saline (TBS), pH 7.2 (25 mM Tris-hydroxymethylamino methane (Tris), 150 mM sodium chloride). Cells were lysed by passing 3 times through a French Press and cell debris was removed by centrifugation (30 minutes, 20,000×gravity, 4° C.). The cleared supernatant was filtered through course pre-filters, and TBS, pH 7.2, 500 mM imidazole was added to obtain a final imidazole concentration of 50 mM. This lysate was loaded onto a column (6×8 cm) packed with Sepharose [Ni^|| charged]Chelation resin (Pharmacia) and pre-equilibrated with TBS pH 7.2/50 mM imidazole. After washing to baseline absorbance with equilibration buffer, the column was washed with one column volume of TBS pH 7.2 containing 90 mM imidazole. FXRα LBD was eluted directly with 365 mM imidazole. Column fractions were pooled and dialyzed against TBS, pH 7.2, containing 0.5 mM EDTA and 5 mM DTT. The dialyzed protein sample was concentrated using Centri-prep 10 K (Amicon) and subjected to size exclusion, using a column (3×90 cm) packed with Sepharose S-75 resin (Pharmacia) pre-equilibrated with TBS, pH 7.2, containing 0.5 mM ethylene diamine tetraacetic acid (EDTA) and 5 mM dithiothreitol (DTT). […]
For `CC(C)c1onc(-c2c(Cl)cccc2Cl)c1COc1ccc(-c2ccc3nc(C(=O)O)ccc3c2)cc1` [Example 1h, Potassium 6-[4-({[3-(2,6-Dichlorophenyl)-5-(1-methylethyl)-4-isoxazolyl]methyl}oxy)phenyl]-2-quinolinecarboxylic Acid], the “Activity (pEC50)” value is listed as “++ (++ indicates a pEC50 6-6.99)”.

Still in this experiment, the particulars now being: FXRα LBD with biotinylated SRC-1 (LCD2, 676-700) peptide, read-out: Activity (pEC50) (converted).
`O=C(O)c1cc2ccc(-c3ccc(OCc4c(-c5c(Cl)cncc5Cl)noc4C4CCC4)cc3)cc2cn1` [Example 9, 7-[4-({[5-Cyclobutyl-3-(3,5-dichloro-4-pyridinyl)-4-isoxazolyl]methyl}oxy)phenyl]-3-isoquinolinecarboxylic acid]: the EC50 is 102 to 1000 nM.
The same measure, in the same setting: the value for `Cc1cc(-c2ccc3nc(C(=O)O)ccc3c2)ccc1OCc1c(-c2c(Cl)cccc2Cl)noc1C(C)C` [Example 32, 6-[4-({[3-(2,6-Dichlorophenyl)-5-(1-methylethyl)-4-isoxazolyl]methyl}oxy)-3-methylphenyl]-2-quinolinecarboxylic acid] was 102 to 1000 nM.
With `Cc1cc2cc(-c3ccc(OCc4c(-c5c(Cl)cccc5Cl)noc4C(C)C)cc3)ccc2nc1C(=O)O` [Example 31, 6-[4-({[3-(2,6-dichlorophenyl)-5-(1-methylethyl)-4-isoxazolyl]methyl}oxy)phenyl]-3-methyl-2-quinolinecarboxylic acid], the EC50 was 102 to 1000 nM.
`CC[C@@H](C)c1onc(-c2c(Cl)cccc2Cl)c1COc1ccc(-c2ccc3nc(C(=O)O)ccc3c2)cc1` [Example 14, 6-{4-[({3-(2,6-Dichlorophenyl)-5-[(1R)-1-methylpropyl]-4-isoxazolyl}methyl)oxy]phenyl}-2-quinolinecarboxylic acid]: the EC50 was 102 to 1000 nM.
Consider `CC(C)c1onc(-c2c(Cl)cccc2Cl)c1COc1ccc(-c2ccc3c(C(=O)O)ccnc3c2)cc1` [Example 4, 7-[4-({[3-(2,6-Dichlorophenyl)-5-(1-methylethyl)-4-isoxazolyl]methyl}oxy)phenyl]-4-quinolinecarboxylic acid], for which the EC50 is 102 to 1000 nM.
For the compound `Cc1cc(OCc2c(-c3c(Cl)cccc3Cl)noc2C(C)C)ccc1-c1ccc2nc(C(=O)O)ccc2c1` [Example 33, 6-[4-({[3-(2,6-Dichlorophenyl)-5-(1-methylethyl)-4-isoxazolyl]methyl}oxy)-2-methylphenyl]-2-quinolinecarboxylic acid], the EC50 was 102 to 1000 nM.
As to `O=C(O)c1ccc2cc(-c3ccc(OCc4c(-c5c(Cl)cccc5Cl)noc4C4CCC4)cc3)ccc2n1` [Example 7, 6-[4-({[5-Cyclobutyl-3-(2,6-dichlorophenyl)-4-isoxazolyl]methyl}oxy)phenyl]-2-quinolinecarboxylic acid], the EC50 is 102 to 1000 nM.
For `O=C(O)c1ccc2cc(-c3ccc(OCc4c(-c5c(Cl)cccc5Cl)noc4C4CCCC4)cc3)ccc2n1` [Example 6, 6-[4-({[5-Cyclopentyl-3-(2,6-dichlorophenyl)-4-isoxazolyl]methyl}oxy)phenyl]-2-quinolinecarboxylic acid], the EC50 was 102 to 1000 nM.
Consider `O=C(O)c1ccc2cc(-c3ccc(OCc4c(-c5c(Cl)cncc5Cl)noc4C4CC4)cc3)ccc2n1` [Example 12, 6-[4-({[5-Cyclopropyl-3-(3,5-dichloro-4-pyridinyl)-4-isoxazolyl]methyl}oxy)phenyl]-2-quinolinecarboxylic acid], for which the EC50 is 102 to 1000 nM.
With `CC(C)c1onc(C[S+]([O-])c2c(Cl)cccc2Cl)c1COc1ccc(-c2ccc3nc(C(=O)O)ccc3c2)cc1` (stereo not shown) [Example 23, 6-[4-({[3-{[(2,6-Dichlorophenyl)sulfinyl]methyl}-5-(1-methylethyl)-4-isoxazolyl]methyl}oxy)phenyl]-2-quinolinecarboxylic acid], the EC50 was 102 to 1000 nM.
For the compound `Cc1ccnc(C)c1-c1noc(C(C)C)c1COc1ccc(-c2ccc3nc(C(=O)O)ccc3c2)cc1` [Example 29, 6-[4-({[3-(2,4-Dimethyl-3-pyridinyl)-5-(1-methylethyl)-4-isoxazolyl]methyl}oxy)phenyl]-2-quinolinecarboxylic acid], the EC50 was 102 to 1000 nM.
For `CC(C)c1onc(-c2c(Cl)cncc2Cl)c1COc1ccc(-c2ccc3nc(C(=O)O)ccc3c2)cc1` [Example 25, 6-[4-({[3-(3,5-Dichloro-4-pyridinyl)-5-(1-methylethyl)-4-isoxazolyl]methyl}oxy)phenyl]-2-quinolinecarboxylic acid], the EC50 was 102 to 1000 nM.
As to `Cc1cccc(C)c1OCc1noc(C2CCC2)c1COc1ccc(-c2ccc3cc(C(=O)O)ncc3c2)cc1` [Example 17, 7-(4-{[(5-Cyclobutyl-3-{[(2,6-dimethylphenyl)oxy]methyl}-4-isoxazolyl)methyl]oxy}phenyl)-3-isoquinolinecarboxylic acid], the EC50 is 102 to 1000 nM.
Take `Cc1nc2ccc(-c3ccc(OCc4c(-c5c(Cl)cccc5Cl)noc4C(C)C)cc3)cc2cc1C(=O)O` [Example 35, 6-[4-({[3-(2,6-Dichlorophenyl)-5-(1-methylethyl)-4-isoxazolyl]methyl}oxy)phenyl]-2-methyl-3-quinolinecarboxylic acid]: the EC50 is 102 to 1000 nM.
Consider `CC(C)c1onc(-c2c(Cl)cccc2Cl)c1CSc1ccc(-c2ccc3nc(C(=O)O)ccc3c2)cc1` [Example 38, 6-[4-({[3-(2,6-Dichlorophenyl)-5-(1-methylethyl)-4-isoxazolyl]methyl}thio)phenyl]-2-quinolinecarboxylic acid], for which the EC50 is 102 to 1000 nM.
Take `CC(C)c1onc(-c2c(Cl)cccc2Cl)c1COc1ccc(-c2ccc3nc(C(=O)O)cnc3c2)cc1` [Example 39, 6-[4-({[3-(2,6-Dichlorophenyl)-5-(1-methylethyl)-4-isoxazolyl]methyl}oxy)phenyl]-2-quinoxalinecarboxylic acid]: the EC50 is 102 to 1000 nM.
For the compound `CC(C)c1onc(-c2c(Cl)cccc2Cl)c1COc1ccc(-c2ccc3c(C(=O)O)cc(C(=O)O)nc3c2)cc1` [Example 3, 7-[4-({[3-(2,6-Dichlorophenyl)-5-(1-methylethyl)-4-isoxazolyl]methyl}oxy)phenyl]-2,4-quinolinedicarboxylic acid], the EC50 is 102 to 1000 nM.
On the same count and under the same terms, the value for `CC(C)c1onc(COC2CCCC2)c1COc1ccc(-c2ccc3nc(C(=O)O)ccc3c2)cc1` [Example 27, 6-[4-({[3-[(Cyclopentyloxy)methyl]-5-(1-methylethyl)-4-isoxazolyl]methyl}oxy)phenyl]-2-quinolinecarboxylic acid] was 1020 to 10000 nM; that for `CC(C)c1onc(-c2c(Cl)ccnc2Cl)c1COc1ccc(-c2ccc3nc(C(=O)O)ccc3c2)cc1` [Example 28, 6-[4-({[3-(2,4-Dichloro-3-pyridinyl)-5-(1-methylethyl)-4-isoxazolyl]methyl}oxy)phenyl]-2-quinolinecarboxylic acid] was 102 to 1000 nM; that for `CC(C)c1onc(CNc2c(Cl)cccc2Cl)c1COc1ccc(-c2ccc3nc(C(=O)O)ccc3c2)cc1` [Example 21, 6-[4-({[3-{[(2,6-Dichlorophenyl)amino]methyl}-5-(1-methylethyl)-4-isoxazolyl]methyl}oxy)phenyl]-2-quinolinecarboxylic acid] was 102 to 1000 nM.
On the same count and under the same terms, the figure for `CC(C)c1onc(-c2c(Cl)cccc2Cl)c1COc1ccc(-c2cc3ccc(C(=O)O)nc3cc2F)cc1` [Example 30, 6-[4-({[3-(2,6-Dichlorophenyl)-5-(1-methylethyl)-4-isoxazolyl]methyl}oxy)phenyl]-7-fluoro-2-quinolinecarboxylic acid] is 102 to 1000 nM.
